Literature values as cited in patent publication US20080286234A1, “Method for treating demyelinating diseases” (priority 2007, published 2008).

Conditions: MS patients; for reduction in the rate of MS relapses / decrease in relapse rate: vs. placebo

Row | Substance | slowed the progression of disability (as measured by EDSS) | reduction in the rate of MS relapses / decrease in relapse rate | effect on exacerbations in clinical trials (clinical trials) | effect on new, gadolinium-enhanced brain lesions on MRI scans (clinical trials)
1 | natalizumab: monoclonal antibody against integrin-(4 used to treat multiple sclerosis and Crohn's disease | 42% | 67% | – | –
2 | glatiramer acetate | – | 30-35% | reduce the number and severity of exacerbations | reduce the number of new, gadolinium-enhanced brain lesions
